Structures can show the parent of a compound that is named as a salt.
How the values were obtained:
[1] = test system: LP-1 multiple myeloma cells; test: CCK-8 cytotoxicity; format: cell-based; settings: LP-1 cells
Method: The in vitro anti-tumor activity of Dar-Ps-VCR against LP-1 multiple myeloma cells was determined using a CCK-8 kit, with MV4-11 cells as a control. LP-1 cells were first spread in 96-well plates (15,000/well) and placed in an incubator at 37° C. with 5% CO2 for 24 h. After that, 20 μL of Dar-Ps-VCR, Ps-VCR and free VCR containing different Dar surface densities were added to each well, and the final concentrations of VCR in the wells were 0.001, 0.01, 0.05, 0.1, 0.5, 1 and 10 ng/mL. After incubation at 37° C. for 48 h, 10 μL of CCK-8 solution was added to each well to continue the incubation for 4 h. Finally, its absorbance value at 492 nm was tested by an enzyme marker. Cell viability was calculated by the ratio of the absorbance value of the experimental group to the absorbance value of the cells incubated with the addition of PBS, and the experiment was performed in parallel for four groups (mean±SD, […]).

LP-1 cells = test: AnnexinV-FITC/PI apoptosis by flow cytometry; format: cell-based; settings: VCR 0.5 ng/mL, 48 h
Method: LP-1 cells were first spread in 6-well plates at a density of 2×10^5 cells/well and incubated in the incubator for 24 h. After 24 h, 200 μL of Dar-Ps-VCR, Ps-VCR, and free VCR were added (the in-well concentration of VCR was 0.5 ng/mL), and the cells with only PBS were used as a control. After incubation in the incubator for 48 h, LP-1 cells were collected by centrifugation (800 rpm, 5 min) and washed twice with ice PBS, and finally 200 μL of Binding buffer was added to each sample to resuspend the cells (the cell density was approximately 10^6 cells/mL). After blowing uniformly, 100 μL was taken into the flow tube and 5 μL of AnnexinV-FITC and 10 μL of PI solution were added sequentially, and the cells were stained at room temperature and protected from light for 15 min, then 400 μL of PBS was added and mixed uniformly, and measured by flow cytometry within 1 h. The cells were then stained with PBS for 15 min at room temperature and protected from light for 15 min. Among them, the samples in the PBS group that were treated in a 50° C. water bath for 5 min and fixed with 4% paraformaldehyde for 5 min were used as the early apoptosis group and the late apoptosis group, respectively, and stained for 15 min by adding 5 μL of AnnexinV-FITC solution and 10 μL of PI solution, respectively.

[2] = test system: LP-1-Luc multiple myeloma mice; test: Anti-tumor effect in orthotopic LP-1-Luc multiple myeloma mice; format: in vivo
Method: Mice were simultaneously weighed.
To investigate the anti-tumor effect of Dar-Ps-VCR in […] LP-1-Luc multiple myeloma mice, treatment experiments were initiated when the bioluminescence intensity reached 1.2×10^6 p/sec/cm^2/sr on day 10 post-inoculation. There were two dosing regimens that maintained the same total VCR administration: one with a VCR dose of 0.25 mg/kg, one injection given on 4 days for a total of 4 injections, denoted as Dar-Ps-VCR (0.25 mg VCR equiv./kg, Q4d); and the other with a VCR dose of 0.50 mg/kg, one injection given on 8 days for a total of 2 injections, denoted as Dar-Ps-VCR (0.50 mg VCR equiv./kg, Q8d). Based on the first dosing regimen, equal VCR doses of Ps-VCR and free VCR, equal equivalents of Dar-Ps, and PBS were used as controls. Each treatment group consisted of 10 […] mice, of which 4 were used for bioluminescence imaging and 6 were used to monitor body weight and observe survival. […] At the end of drug administration, the tumors of mice in the non-targeted Ps-VCR and free VCR groups began to recur, and Luc bioluminescence signals increased rapidly, i.e., 157- and 53-fold by day 39, respectively.

| Compound | cell survival ([1]; Dar concentration 9 μg/mL) | IC50 ([1]; Homo sapiens, 48 h, VCR concentration, read-out: LC50 (IC50)) | apoptosis (LP-1 cells) | median survival ([2]; 0.25 mg VCR equiv./kg, Q4d (Dar-Ps: equal equivalents)) | increase of Luc bioluminescence signal ([2]; by day 39, 0.25 mg VCR equiv./kg, Q4d) | Luc signal during the administration treatment period ([2]; days 10-22) |
| --- | --- | --- | --- | --- | --- | --- |
| free Dar: CD38-targeting monoclonal antibody daratumumab (Dar) | ~100% | – | – | – | – | – |
| CC[C@]1(O)C[C@H]2CN(CCc3c([nH]c4ccccc34)[C@@](C(=O)OC)(c3cc4c(cc3OC)N(C=O)[C@H]3[C@@](O)(C(=O)OC)[C@H](OC(C)=O)[C@]5(CC)C=CCN6CC[C@]43[C@@H]65)C2)C1 [free VCR, vincristine sulfate] | – | 1.38 ng/mL | 31.4% | 52 days | 53 fold | no significant increase or even a slight decrease in Luc signal |

From patent publication US12478586B2, “Small molecular drug-loaded polymer vesicle, preparation method therefor and use thereof” (SOOCHOW UNIVERSITY, priority 2020, dated 2025)
